The text below walks through data of US6509367B1 (priority 2001, dated 2003).

For test [1], the system named is mice. The note with it: from Compton et al., 1996; cited from earlier work.
For test [2], the system named is mice. The experiment in a line: Tail-flick antinociception in mice, compound in combination with 3 mg/kg Δ^9-THC (antagonism test). Conditions: at 0.1 mg/kg i.v. Type of test: in vivo. How it is done: (§1) Male ICR mice (25-32 g), purchased from Harlan (Dublin, Va.), were housed in groups of five. All animals were kept in a temperature-controlled (20-22° C.) environment with a 12-hour light-dark cycle (lights on at 7 a.m.). Separate mice were used for testing each drug dose in the in vivo behavioral procedures. The mice were maintained on a […] light: dark cycle, and received food and water ad libitum. Brain tissue for binding studies was obtained from male Sprague-Dawley rats (150-200 g) purchased from Harlan Laboratories (Dublin, Va.).
(§2) Measurement of spontaneous activity in mice occurred in standard activity chambers interfaced with a Digiscan Animal Activity Monitor (Omnitech Electronics, Inc., Columbus, Ohio). A standard tail-flick apparatus (described by Dewey et al., 1970) and a digital thermometer (Fisher Scientific, Pittsburgh, Pa.) were used to measure antinociception and rectal temperature, respectively.
(§3) All drugs were administered to the mice intravenously (i.v.) in the tail vein at a volume of 0.1 ml/10 g.
(§4) Maximum latency of 10 sec was used.

Test [3] deals with mice. The note with it: from Compton et al., 1996; cited from earlier work. The source holds these as a separate data set.
Test [4] deals with mice. Kind of test: Spontaneous activity in mice, compound in combination with 3 mg/kg Δ^9-THC (antagonism test). Type of test: in vivo. Conditions: at 3 mg/kg i.v., analog 10 min before Δ^9-THC. Here is the method: as §1, §2, §3, §4
The test system of test [5] is mice. Conditions: from Compton et al., 1996; cited from earlier work. The source holds these as a separate data set.
Test [6] deals with mice. Kind of test: Antagonism tests with 3 mg/kg Δ^9-THC, stated across the measures (locomotor, antinociception, hypothermia). The note with it: 3 mg/kg Δ^9-THC i.v.

Where a name gives a salt, the structure may show the parent alone. Marks after values point to notes of the source that are not given here.

With `Cc1c(C(=O)NN2CCCCC2)nn(-c2ccc(Cl)cc2Cl)c1-c1ccc(Cl)cc1` [SR141716A, N-(piperidin-1-yl)-5-(4-chlorophenyl)-1-(2,4-dichlorophenyl)-4-methyl-1H-pyrazole-3-carboxamide hydrochloride, reference compound], the “RT: > dose, 50% activity not achieved at this highest dose tested” value with mice [1] was >30^c mg/kg. In addition, the “% MPE: maximum % antagonism of 3 mg/kg Δ^9-THC” value in the test on mice [2] is recorded as 96% (0.1). For the same compound, the “SA: > dose, 50% activity not achieved at this highest dose tested” value in the test on mice [3] is >30^c mg/kg. Moreover, in the test on mice [4], the “SA: maximum % antagonism of 3 mg/kg Δ^9-THC” value is 100% (3). In addition, the “TF: > dose, 50% activity not achieved at this highest dose tested” value in the test on mice [5] is on record as >30^c mg/kg. In the test with mice [6], the “antagonism of locomotor suppressant, antinociceptive and hypothermic effects of Δ^9-THC (in words)” value is “fully antagonized”.
